Assay [1] deals with MCF-7 cells. As to the kind of experiment: Breast Cancer Cell Viability Assays (MCF-7, CellTiter-Glo). Type of assay: cell-based. To be noted: 5 days' compound exposure; for pIC50: Homo sapiens, MCF7, 120 h. In short, it runs like this:
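Percent viability, background-subtracted against untreated wells, was taken from CellTiter-Glo luminescence after 5 days' exposure of MCF-7 cells. Compounds were tested at eleven semilog concentrations, final 0.3–0.000003 μM, in RPMI containing 10% FBS.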

In assay [2] the target is T1, ER-α in MCF-7 cells (Homo sapiens, UniProt P03372).
T1 construct: endogenous in cells; host or cells: MCF-7
T1 sequence (P03372 1-595): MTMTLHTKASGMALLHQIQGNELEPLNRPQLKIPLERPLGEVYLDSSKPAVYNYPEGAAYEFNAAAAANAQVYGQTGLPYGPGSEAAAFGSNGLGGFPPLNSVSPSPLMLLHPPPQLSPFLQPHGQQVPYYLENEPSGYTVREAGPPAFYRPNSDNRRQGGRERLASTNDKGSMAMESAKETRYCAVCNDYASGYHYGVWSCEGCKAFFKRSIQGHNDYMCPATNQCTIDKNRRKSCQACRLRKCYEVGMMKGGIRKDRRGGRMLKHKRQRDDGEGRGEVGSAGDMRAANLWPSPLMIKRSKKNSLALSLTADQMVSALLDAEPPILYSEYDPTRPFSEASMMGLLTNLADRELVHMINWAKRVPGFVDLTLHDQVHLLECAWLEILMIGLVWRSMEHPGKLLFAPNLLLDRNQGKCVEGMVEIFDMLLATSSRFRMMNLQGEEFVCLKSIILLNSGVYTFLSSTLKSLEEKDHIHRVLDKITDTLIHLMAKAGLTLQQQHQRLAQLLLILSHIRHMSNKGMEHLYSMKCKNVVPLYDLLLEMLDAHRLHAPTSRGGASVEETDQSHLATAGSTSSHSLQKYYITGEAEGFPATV
As to the kind of experiment: Breast Cancer Cell ER-α In Cell Western Assay (SP1). In kind it is cell-based. To be noted: 4 or 24 hr post compound addition; for Emax: MCF7, SP1 antibody, read-out: ER-α In Cell Western Assay (SP1) Max Response; for DC50: SP1 antibody, read-out: ER-α In Cell Western Assay (SP1) IC50. In short, it runs like this: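 ER-α levels quantified by in-cell western: SP1 signal normalised to DRAQ5 DNA stain, relative to untreated cells (% ER). Compounds at 0.3–0.000003 μM final, 11-point semilog series, 4 or 24 h exposure of MCF-7 cells grown in charcoal-stripped serum.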

These results are taken from patent publication US9499538B2, “Estrogen receptor modulators and uses thereof” (Seragon Pharmaceuticals, Inc., priority 2012, dated 2016).

Each structure is given as a SMILES string. pIC50: −log10 of the molar value.

For `N#Cc1cc(F)ccc1/C(=C(\c1ccc(/C=C/C(=O)O)cc1)c1ccc2[nH]nc(F)c2c1)C1CCC1` [Example 49, (E)-3-(4-((E)-2-(2-Cyano-4-fluorophenyl)-2-cyclobutyl-1-(3-fluoro-1H-indazol-5-yl)vinyl)phenyl)acrylic acid], in assay [1], the “MCF7 Viability Assay Max Response” value was “++ (++ = a single % value ≧ 40%)” and the pIC50 was not below 7.00. Besides, in assay [2], the Emax is not below 40% and the DC50 is not above 100 nM.
Take `Cc1cc(C#N)ccc1/C(=C(\c1ccc(/C=C/C(=O)O)cc1)c1ccc2[nH]nc(F)c2c1)C1CCC1` [Example 50, (E)-3-(4-((E)-2-(4-Cyano-2-methylphenyl)-2-cyclobutyl-1-(3-fluoro-1H-indazol-5-yl)vinyl)phenyl)acrylic acid]: in assay [1], the “MCF7 Viability Assay Max Response” value is given as “++ (++ = a single % value ≧ 40%)” and the pIC50 was not below 7.00. For the same compound, in assay [2], the Emax is not below 40% and the DC50 is not above 100 nM.
On to `CS(=O)(=O)c1ccc(/C(=C(\c2ccc(/C=C/C(=O)O)cc2)c2ccc3[nH]nc(F)c3c2)C2CCC2)c(F)c1` [Example 51, (E)-3-(4-((E)-2-Cyclobutyl-1-(3-fluoro-1H-indazol-5-yl)-2-(2-fluoro-4-(methylsulfonyl)phenyl)vinyl)phenyl)acrylic acid], for which, in assay [1], the “MCF7 Viability Assay Max Response” value is “++ (++ = a single % value ≧ 40%)” and the pIC50 was not below 7.00. Moreover, in assay [2], the Emax was not below 40% and the DC50 is not above 100 nM.
With `O=C(O)/C=C/c1ccc(/C(=C(\c2ccncc2F)C2CCC2)c2ccc3[nH]nc(F)c3c2)cc1` [Example 52, (E)-3-(4-((E)-2-Cyclobutyl-1-(3-fluoro-1H-indazol-5-yl)-2-(3-fluoropyridin-4-yl)vinyl)phenyl)acrylic acid], in assay [1], the “MCF7 Viability Assay Max Response” value is “++ (++ = a single % value ≧ 40%)” and the pIC50 is not below 7.00. In assay [2], the Emax is not below 40% and the DC50 was not above 100 nM.
In the same order, the values of `N#Cc1ccc(/C(=C(\c2ccc(/C=C/C(=O)O)cc2)c2ccc3[nH]ncc3c2)C2CCC2)c(F)c1` [Example 53, (E)-3-(4-((E)-2-(4-Cyano-2-fluorophenyl)-2-cyclobutyl-1-(1H-indazol-5-yl)vinyl)phenyl)acrylic acid] are “++ (++ = a single % value ≧ 40%)”, not below 7.00, not below 40% and not above 100 nM.
Regarding `N#Cc1cc(F)ccc1/C(=C(\c1ccc(/C=C/C(=O)O)cc1)c1ccc2[nH]ncc2c1)C1CCC1` [Example 54, (E)-3-(4-((E)-2-(2-Cyano-4-fluorophenyl)-2-cyclobutyl-1-(1H-indazol-5-yl)vinyl)phenyl)acrylic acid], in assay [1], the “MCF7 Viability Assay Max Response” value is reported as “++ (++ = a single % value ≧ 40%)” and the pIC50 is not below 7.00. Further, in assay [2], the Emax was not below 40% and the DC50 was not above 100 nM.
As to `Cc1cc(C#N)ccc1/C(=C(\c1ccc(/C=C/C(=O)O)cc1)c1ccc2[nH]ncc2c1)C1CCC1` [Example 55, (E)-3-(4-((E)-2-(4-Cyano-2-methylphenyl)-2-cyclobutyl-1-(1H-indazol-5-yl)vinyl)phenyl)acrylic acid], in assay [1], the “MCF7 Viability Assay Max Response” value is recorded as “++ (++ = a single % value ≧ 40%)” and the pIC50 is not below 7.00. For the same compound, in assay [2], the Emax was not below 40% and the DC50 is not above 100 nM.
`CC/C(=C(/c1ccc(/C=C/C(=O)O)cc1)c1ccc2[nH]nc(F)c2c1)c1cccc(Oc2cncc(S(C)(=O)=O)n2)c1` [Example 56, (E)-3-(4-((E)-1-(3-Fluoro-1H-indazol-5-yl)-2-(3-((6-(methylsulfonyl)pyrazin-2-yl)oxy)phenyl)but-1-en-1-yl)phenyl)acrylic acid]: in assay [1], the “MCF7 Viability Assay Max Response” value is recorded as “++ (++ = a single % value ≧ 40%)” and the pIC50 is less than 7.00. In addition, in assay [2], the Emax was not below 40% and the DC50 was not above 100 nM.
